The results in this text go back to patent US20030027720A1, “Synergistic fungicidal composition comprising a compound analogous to strobilurin” (priority 1995, published 2003).

One experiment deals with Alternaria brassicae. Description: In vivo test, alternaria disease of radish, preventive treatment 24 hours before infection (Tammes isobole). The settings on record: radish seedlings, spray 24 h before infection, reading 6 days after infection. On the procedure:
In vivo test of the combination of ICIA5504 with iprodione with respect to alternaria disease of radish (Alternaria brassicae) by preventive treatment 24 hours before infection. A suspension comprising the compounds A and B in a liquid mixture composed of a surface-active agent (oleate of polyoxyethylenated derivative of sorbitan) and water is prepared. The component B is iprodione; the A/B ratio is 0.25, 0.5, 1, 2 or 4. Radish seedlings (variety Pernot), are grown in small pots. When these seedlings are 10-12 days old (cotyledon, 1st leaf stage), they are treated by spraying with the above suspension. […] After 24 hours, each seedling is infected by spraying with an aqueous suspension of spores of Alternaria brassica, which suspension is obtained from an in vitro culture of the fungus. These spores are suspended at a concentration of 40,000 units per cm^3 of inoculum. Infection is carried out by spraying the inoculum at the top surface of the leaves. The infected seedlings are then incubated for six days at 18-20° C. at 90-100% relative humidity under natural light. Reading is carried out 6 days after infection, in comparison with the control seedlings. […]

The test system of a further experiment is Pyrenophora teres. Put plainly: In vivo test, helminthosporium disease of barley, preventive treatment 7 days before infection (Colby). As to conditions: graded 10 days after infection. On the procedure:
In vivo test of the combination of ICIA5504 with iprodione with respect to helminthosporium disease of barley by preventive treatment 7 days before infection.
The fungicides are used at the following doses:
The young barley plants (var. Express) which are 12 days old (first leaf developed stage) are treated with the experimental fungicides at the doses indicated above in a slurry volume of 250 l/ha (3 repeats/dose). Seven days after the treatment, the young barley plants are infected with a suspension of Pyrenophora teres spores (10,000 spores/ml). The young plants are incubated for 48 hours at 20° C., 100% relative humidity (RH). Next, the plants are transferred to a greenhouse at 20° C., 70-80% RH under natural light. The grading of the disease is carried out ten days after infection by estimating the leaf surface area contaminated on the first leaf (10 young plants/pot).
By comparing with the control (non-treated-contaminated) a percentage efficacy is calculated. The synergy is then quantified by using the Colby model.

As for `CO/C=C(/C(=O)OC)c1ccccc1Oc1cc(Oc2ccccc2C#N)ncn1` [ICIA5504, methyl (E)-2-{2-[6-(2-cyanophenoxy)pyrimidin-4-yloxy]phenyl}-3-methoxyacrylate], the “dose of A alone necessary for the destruction of 80% of the parasite” value in the experiment on Alternaria brassicae is recorded as 115 ppm (mg/l). For the same molecule, the Observed efficacy in the experiment with Pyrenophora teres (ICIA5504 1.5 g/ha alone) stood at 0%; with Pyrenophora teres (ICIA5504 3.1 g/ha alone), 17.54%; with Pyrenophora teres (ICIA5504 6.2 g/ha alone), 34.21%; in the experiment with Pyrenophora teres (ICIA5504 12.5 g/ha alone) it was 59.21%; in the experiment with Pyrenophora teres (ICIA5504 25 g/ha alone) it was 76.75%; with Pyrenophora teres (ICIA5504 50 g/ha alone) it was 83.86%. The Observed efficacy stood at 81.67% in the experiment on Pyrenophora teres (ICIA5504 100 g/ha alone) and 92.72% in the experiment with Pyrenophora teres (ICIA5504 200 g/ha alone).
As to `CC(C)NC(=O)N1CC(=O)N(c2cc(Cl)cc(Cl)c2)C1=O` [iprodione], the Observed efficacy with Pyrenophora teres (iprodione 12.5 g/ha alone) was determined as 15.79%; in the experiment on Pyrenophora teres (iprodione 25 g/ha alone) it was 7.02%; in the experiment on Pyrenophora teres (iprodione 50 g/ha alone) it was 37.72%; in the experiment with Pyrenophora teres (iprodione 100 g/ha alone), 35.09%; with Pyrenophora teres (iprodione 200 g/ha alone) it was 47.37%; in the experiment with Pyrenophora teres (iprodione 400 g/ha alone), 50.88%. In addition, the Observed efficacy in the experiment with Pyrenophora teres (iprodione 800 g/ha alone) stood at 59.65%.
